Patent US11827628B2, “Compositions and methods for inhibition of the JAK pathway” (Rigel Pharmaceuticals, Inc., priority 2005, dated 2023)
Read-outs that look alike come from different tables or passages of the source.

Legend:
[1] = tested on: IL-4 stimulated expression of CD23 in human Ramos B cells (JAK-1 and JAK-3); experiment: Assay for Ramos B-Cell Line Stimulated with IL-4 (CD23 upregulation, FACS); format: cell-based; conditions: Ramos B cells stimulated with IL-4, CD23 expression by FACS, read-out: IC50, Example 41
Outline: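 Compound effect on IL-4-driven JAK1/JAK3 signalling is gauged as CD23 surface expression, measured by FACS after 20-24 h of stimulation with IL-4 at 50 units/mL final. A 1 h compound pre-treatment at 37 °C precedes stimulation, and IC50 is derived from the results.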

Primary human T-cells = experiment: Primary Human T-Cell Proliferation Assay Stimulated with IL-2 (CellTiter-Glo); format: cell-based; conditions: primary human T-cells stimulated with IL-2, proliferation, read-out: IC50, Example 42
Outline: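 IC50 derived from CellTiter-Glo ATP signal after 72 hours of IL-2-driven proliferation at 37° C. Cells: primary human T-cells from blood, stimulated beforehand 3-4 days on anti-CD3/anti-CD28 with IL-2, then rested from IL-2 before compound exposure in duplicate; IL-2-free wells served as unstimulated control.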

SMILES | IC50 ([1]; Homo sapiens, Ramos) [nM] | IC50 (Primary human T-cells; Homo sapiens, T-cell) [nM] | IC50 [1] [nM] | IC50 (Primary human T-cells) [nM]
COC(=O)c1ccc(Nc2nc(Nc3ccc(C)c(S(N)(=O)=O)c3)ncc2F)s1 [IX-46, N2-(3-Aminosulfonyl-4-methylphenyl)-5-fluoro-N4-(5-methoxycarbonyl-thiophene-2-yl)-2,4-pyrimidinediamine] | 73.9 | 1390 | – | –
COC(=O)c1ccc(Nc2nc(Nc3cccc(S(N)(=O)=O)c3)ncc2F)s1 [IX-47, N2-(3-Aminosulfonylphenyl)-5-fluoro-N4-(5-methoxycarbonyl-thiophene-2-yl)-2,4-pyrimidinediamine] | 223 | 2390 | – | –
COC(=O)c1ccc(Nc2nc(Nc3ccc(S(N)(=O)=O)cc3)ncc2F)s1 [IX-49, N2-(4-Aminosulfonylphenyl)-5-fluoro-N4-(5-methoxycarbonyl-thiophene-2-yl)-2,4-pyrimidinediamine] | 96.5 | 61900 | – | –
CNS(=O)(=O)c1cc(Nc2ncc(F)c(Nc3ccc(-c4ccccn4)c(OCCl)c3)n2)ccc1C [IX-54, 5-Fluoro-N2-[3-N-(methyl)aminosulfonyl-4-methylphenyl]-N4-[4-(2-pyridinyl)-3-chloromethyleneoxyphenyl]-2,4-pyrimidinediamine] | – | – | 174 | 2470
COc1ccc(Nc2nc(Nc3ccc(Cl)c(S(N)(=O)=O)c3)ncc2F)cc1Cl [VI-2, N2-(3-Aminosulfonyl-4-chlorophenyl)-N4-(3-chloro-4-methoxyphenyl)-5-fluoro-2,4-pyrimidinediamine] | 89.2 | 3570 | – | –
NS(=O)(=O)c1cc(Nc2ncc(F)c(Nc3ccc(Cl)c(Cl)c3)n2)ccc1Cl [VI-3, N2-(3-Aminosulfonyl-4-chlorophenyl)-N4-(3,4-dichlorophenyl)-5-fluoro-2,4-pyrimidinediamine] | 206 | 8790 | – | –
COc1ccc(Nc2nc(Nc3ccc(C)c(S(N)(=O)=O)c3)ncc2F)cc1Cl [VI-4, N2-(3-Aminosulfonyl-4-methylphenyl)-N4-(3-chloro-4-methoxyphenyl)-5-fluoro-2,4-pyrimidinediamine] | 21.1 | 231 | – | –
COc1ccc(Nc2nc(Nc3ccc(Cl)c(S(=O)(=O)NC(C)=O)c3)ncc2F)cc1Cl [VI-12, N2-[3-(N-Acetyl)aminosulfonyl-4-chlorophenyl]-N4-(3-chloro-4-methoxyphenyl)-5-fluoro-2,4-pyrimidinediamine] | 146 | 1310 | – | –
Cc1cc(Nc2ncc(F)c(Nc3ccc(OC(F)(F)F)c(Cl)c3)n2)cc(S(N)(=O)=O)c1F [VI-16, N2-(3-Aminosulfonyl-4-fluoro-5-methylphenyl)-N4-(3-chloro-4-trifluoromethoxyphenyl)-5-fluoro-2,4-pyrimidinediamine] | 259 | 3910 | – | –
COc1ccc(Nc2nc(Nc3ccc(OC)c(S(N)(=O)=O)c3)ncc2F)cc1Cl [VI-29, N2-(3-Aminosulfonyl-4-methoxyphenyl)-N4-(3-chloro-4-methoxyphenyl)-5-fluoro-2,4-pyrimidinediamine] | 49.8 | 362 | – | –
COc1ccc(Nc2nc(Nc3cc(C)c(OC)c(S(N)(=O)=O)c3)ncc2F)cc1Cl [VI-30, N2-(3-Aminosulfonyl-4-methoxy-5-methylphenyl)-N4-(3-chloro-4-methoxyphenyl)-5-fluoro-2,4-pyrimidinediamine] | 13.2 | 170 | – | –
Cc1ccc(Nc2ncc(F)c(Nc3ccc(OC(F)(F)F)cc3)n2)cc1S(N)(=O)=O [VI-32, N2-(3-aminosulfonyl-4-methylphenyl)-5-fluoro-N4-(4-trofluoromethoxyphenyl)-2,4-pyrimidinediamine] | – | – | 333 | 1660
NS(=O)(=O)c1cccc(Nc2ncc(F)c(Nc3ccc(OC(F)(F)F)cc3)n2)c1 [VI-33, N2-(3-aminosulfonylphenyl)-5-fluoro-N4-(4-trofluoromethoxyphenyl)-2,4-pyrimidinediamine] | – | – | 272 | 660
CC(C)(C)c1ccc(Nc2nc(Nc3cccc(S(N)(=O)=O)c3)ncc2F)cc1 [VI-35, N2-(3-Aminosulfonylphenyl)-N4-(4-tert-butylphenyl)-5-fluoro-2,4-pyrimidinediamine] | 158 | 1260 | – | –
Cc1ccc(Nc2ncc(F)c(Nc3ccc(C(C)(C)C)cc3)n2)cc1S(N)(=O)=O [VI-36, N2-(3-Aminosulfonyl-4-methylphenyl)-N4-(4-tert-butylphenyl)-5-fluoro-2,4-pyrimidinediamine] | 374 | 4500 | – | –
Cc1ccc(Nc2ncc(F)c(Nc3ccc(Cl)c(C(F)(F)F)c3)n2)cc1S(N)(=O)=O [VI-39, N2-(3-Aminosulfonyl-4-methyl-phenyl)-N4-(4-chloro-3-trifluoromethylphenyl)-5-fluoro-2,4-pyrimidinediamine] | 401 | 3140 | – | –

SMILES | IC50 ([1]; Homo sapiens, Ramos) [nM] | IC50 (Primary human T-cells; Homo sapiens, T-cell) [nM] | IC50 [1] [nM] | IC50 (Primary human T-cells) [nM]
NS(=O)(=O)c1cc(Nc2ncc(F)c(Nc3ccc(C(F)(F)F)cc3)n2)ccc1Cl [VI-41, N2-(3-Aminosulfonyl-4-chlorophenyl)-5-fluoro-N4-(4-trifluorophenyl)-2,4-pyrimidinediamine] | – | – | 342 | 6240
NS(=O)(=O)c1cc(Nc2ncc(F)c(Nc3ccc(OC(F)(F)F)cc3)n2)ccc1Cl [VI-42, N2-(3-Aminosulfonyl-4-chlorophenyl)-5-fluoro-N4-(4-trifluoromethoxyphenyl)-2,4-pyrimidinediamine] | 452 | 6170 | – | –
CC(C)(C)c1ccc(Nc2nc(Nc3ccc(Cl)c(S(N)(=O)=O)c3)ncc2F)cc1 [VI-43, N2-(3-Aminosulfonyl-4-chlorophenyl)-N4-(4-tert-butylphenyl)-5-fluoro-2,4-pyrimidinediamine] | 739 | 6140 | – | –
NS(=O)(=O)c1cc(Nc2ncc(F)c(Nc3ccc(C(F)(F)F)c(Cl)c3)n2)ccc1Cl [VI-44, N2-(3-Aminosulfonyl-4-chlorophenyl)-N4-(3-chloro-4-trifluoromethyl-phenyl)-5-fluoro-2,4-pyrimidinediamine] | 429 | 7310 | – | –
Cc1ccc(Nc2ncc(F)c(Nc3ccc(OCC(F)(F)F)cc3)n2)cc1S(N)(=O)=O [VI-46, N2-(3-Aminosulfonyl-4-methylphenyl)-5-fluoro-N4-(4-trifluoromethylmethyleneoxyphenyl)-2,4-pyrimidinediamine] | – | – | 144 | 1260
NS(=O)(=O)c1cc(Nc2ncc(F)c(Nc3ccc(OCC(F)(F)F)cc3)n2)ccc1Cl [VI-48, N2-(3-Aminosulfonyl-4-chlorophenyl)-5-fluoro-N4-(4-trifluoromethylmethyleneoxyphenyl)-2,4-pyrimidinediamine] | – | – | 315 | 2240
C#CCOc1cccc(Nc2nc(Nc3ccc(C)c(S(N)(=O)=O)c3)ncc2F)c1 [VI-57, N2-(3-Aminosulfonyl-4-methylphenyl)-5-fluoro-N4-[3-(prop-2-ynyloxy)phenyl]-2,4-pyrimidinediamine] | 202 | 1180 | – | –
C#CCOc1ccc(Nc2nc(Nc3ccc(C)c(S(N)(=O)=O)c3)ncc2F)cc1C [VI-58, N2-(3-Aminosulfonyl-4-methylphenyl)-5-fluoro-N4-[3-methyl-4-(prop-2-ynyloxy)phenyl]-2,4-pyrimidinediamine] | 164 | 724 | – | –
C#CCN(CC#C)c1ccc(Nc2nc(Nc3ccc(C)c(S(N)(=O)=O)c3)ncc2F)cc1 [VI-67, N2-(3-Aminosulfonyl-4-methylphenyl)-N4-{4-[bis(prop-2-ynyl)amino]phenyl}-5-fluoro-2,4-pyrimidinediamine] | 147 | 718 | – | –
C#CCOC(=O)NCc1ccc(Nc2nc(Nc3ccc(C)c(S(N)(=O)=O)c3)ncc2F)cc1 [VI-73, N2-(3-Aminosulfonyl-4-methylphenyl)-5-fluoro-N4-{4-[(prop-2-ynyloxy)carbonylaminomethyl]phenyl}-2,4-pyrimidinediamine] | 251 | 2010 | – | –
C#CCNS(=O)(=O)c1ccc(Nc2nc(Nc3cccc(S(N)(=O)=O)c3)ncc2F)cc1 [VI-75, N2-(3-Aminosulfonylphenyl)-5-fluoro-N4-[4-(prop-2-ynylaminosulfonyl)phenyl]-2,4-pyrimidinediamine] | 904 | 929 | – | –
C#CCNS(=O)(=O)c1ccc(Nc2nc(Nc3ccc(C)c(S(N)(=O)=O)c3)ncc2F)cc1 [VI-76, N2-(3-Aminosulfonyl-4-methylphenyl)-5-fluoro-N4-[4-(prop-2-ynylaminosulfonyl)phenyl]-2,4-pyrimidinediamine] | 549 | 783 | – | –
NS(=O)(=O)c1ccc(Nc2ncc(F)c(Nc3ccc(CCCF)cc3)n2)cc1 [VI-82, N2-(4-Aminosulfonylphenyl)-5-fluoro-N4-[4-(3-fluoropropyl)phenyl]-2,4-pyrimidinediamine] | 212 | 1630 | – | –
Cc1ccc(Nc2ncc(F)c(Nc3ccc(CCCO)cc3)n2)cc1S(N)(=O)=O [VI-87, N2-(3-Aminosulfonyl-4-methylphenyl)-5-fluoro-N4-[4-(3-hydroxypropyl)phenyl]-2,4-pyrimidinediamine] | 541 | 1240 | – | –
Cc1ccc(Nc2ncc(F)c(Nc3ccc(CCCCO)cc3)n2)cc1S(N)(=O)=O [VI-90, N2-(3-Aminosulfonyl-4-methylphenyl)-5-fluoro-N4-[4-(4-hydroxybutyl)phenyl]-2,4-pyrimidinediamine] | 1080 | 3970 | – | –
NS(=O)(=O)c1ccc(Nc2ncc(F)c(Nc3ccc(CCCCF)cc3)n2)cc1 [VI-91, N2-(4-Aminosulfonylphenyl)-5-fluoro-N4-[4-(4-fluorobutyl)phenyl]-2,4-pyrimidinediamine] | 221 | 1230 | – | –
